Data on 10 molecules can be found in PMC12085399, “Quantitative in vitro-to-in vivo extrapolation of human adrenergic and trace amine-associated receptor 1 potencies of pre-workout supplement ingredients using physiologically based kinetic modelling-based reverse dosimetry” (Archives of Toxicology, 2025).

Like-named read-outs stand apart in the source and are kept apart here.

The nature of series [1]: In vitro hepatic clearance by human liver S9 (compound depletion). The series is classed as in vitro ADME. The note with it: for Predicted intrinsic hepatic metabolic clearance CLmet: CLint,u scaled to a whole liver, 121 mg HLS9/g liver; for Predicted intrinsic hepatic metabolic clearance CLmet / k el at 1 µM / microsomal CLint at 1 µM: human; for k el at 1 µM: pH 7.4; for metabolism in incubations without co-factor mix: HLS9 without co-factor mix. The procedure: In vitro intrinsic hepatic clearance (CLint) values of the phenethylamine analogues were determined in experiments with pooled human liver S9 (HLS9; Corning, Woburn, MA, USA and Gibco, USA), by measuring the rate of compound depletion. Stocks of 1 mM PEA compounds were prepared in DMSO and stocks of 10 mg/mL alamethicin were prepared in methanol. The final incubation mixtures consisted of 1 µM of PEA compound (0.1% DMSO) in 100 mM potassium phosphate buffer with 5 mM magnesium chloride (pH 7.4) supplemented with 0.025 mg/mL alamethicin (0.25% methanol) and 0.1–2 mg/mL HLS9. […] Incubation mixtures were first pre-incubated at 37 °C in a shaking incubator at 300 rpm for 5 min. After 5 min, the reaction was initiated by adding a co-factor mix in supplemented buffer with final concentrations of 3 mM nicotinamide adenine dinucleotide phosphate (NADPH; for oxidation, reduction and hydrolysis), 5 mM uridine diphosphate glucuronic acid (UDPGA; for glucuronidation), 0.2 mM adenosine 3’-phosphate 5’-phosphosulfate lithium salt hydrate (PAPS; for sulfation) and 0.2 mM S-(5’-Adenosyl)-L-methionine p-toluenesulfonate salt (SAM; for methylation). The final incubation volume was 100 µL and incubations were performed in 1.5 mL Safe-Lock Eppendorf tubes (Eppendorf) in a shaking incubator (300 rpm) at 37 °C (Eppendorf Thermomixer). Incubations were terminated by adding 100 µL ice-cold acetonitrile after, 0, 2.5, 5, 10, 20, 40 and 60 min. Then, samples were vortexed, put on ice and stored at -20 °C until the day of the LC–MS/MS analysis. Controls of incubation mixtures without HLS9 or mixtures without co-factors were also included. Two independent experiments, both in duplicate, were performed on different days. On the day of the LC–MS/MS analysis, samples were thawed and centrifuged at 15,000 rpm for 10 min. The supernatant was collected in glass insert vials for LC injection (BGB Analytik, Harderwijk, The Netherlands). Details on the methods of the LC–MS/MS analysis are described in Sect. "LC–MS/MS analysis". After determining the PEA (analogue) amount at the different time points, the CLint was calculated. The natural logarithm of compound concentrations was plotted against time and the slope of this curve represented the elimination rate constant k (in 1/min). The half-life (t1/2 in minutes) was calculated by: ln (2)/k (in 1/min). The volume of incubation (V) in µL/mg protein was determined by: 1000 / HLS9 concentration (in mg/mL). Finally, CLint could be calculated by: CLintμL/min/mg protein=VμL/mg protein∗ln2/t1/2min.
The fraction unbound in these in vitro liver clearance incubations was calculated with the method of (Hallifax and Houston [2006]) in which unspecific binding in HLS9 incubations was assumed to be the same as in liver microsomal incubations. The in vitro obtained HLS9 CLint values were corrected for protein binding in the HLS9 incubation and were scaled to a whole liver by using a scaling factor of 121 mg HLS9/g liver (Houston and Galetin [2008]).

In a further series the test system is ADRβ1. Details: method as in Pinckaers et al. [2024]. The note with it: in vitro ADRβ1 activation assays, Fig. 6E; ref Pinckaers et al. [2024]; cited from earlier work.
For series [2] the following is noted: human, t = 0.70 h, escalating intravenous infusion 0.5, 1, 2, 4 µg/kg bw/min, 3 min each; ref Feng et al. [2012]; cited from earlier work.
Series [3] in a line: Generic human PBK model with oral dosing, simulated venous plasma concentration. Particulars: oral dose of 5.7 mg/kg bw, observed data of Rafehi et al. [2019]. From the text:
The PBK model codes used in this study are presented in the Supplementary data. For the prediction of internal concentrations of the PEA analogues a generic PBK model for humans with oral dosing was used. The PBK model code was adopted from (Jones and Rowland-Yeo [2013]). In general, the body compartments described in the model are: adipose, bone, brain, gut, heart, kidney, liver, lung, muscle, skin, spleen, testes, venous, arterial, plasma and a rest compartment. The concentrations in these compartments were modelled as blood-flow limited, in which it is assumed that the total concentration in the tissue is in equilibrium with the concentration in the systemic circulation at a steady state. The concentration in the circulation is compound-specific and is based on the plasma partition coefficients. The blood flow rate, the tissue volume and the plasma partition coefficients determine the rate of reaching the steady-state (Jones and Rowland-Yeo [2013]). The model was converted to RStudio (version 2023.12.1 Build 402, “Ocean Storm Release”) solving the differential equations with the R rxode2 package (with tidyverse packages). Cliver free was defined as Cliver/Kp liver * Fup instead of Cliver* Fup. […]

For series [4] the following is noted: human; ref Faraj et al. [1979]; cited from earlier work.
Where [5] appears, read: full reaction mix (HLS9 and co-factor mix), 1 µM, HLS9 concentration per compound (0.10-2 mg/mL), read-out: elimination rate constant k (converted).
Setting [6] is: s9, pH 7.4, CLint app corrected for unspecific protein (HLS9) binding, read-out: In vitro CLint,u.
Where [7] appears, read: s9, pH 7.4, human liver S9 with co-factor mix (NADPH, UDPGA, PAPS, SAM), 1 µM, read-out: In vitro CLint app.

Regarding `CN(C)CCc1ccc(O)cc1` [Hordenine, hordenine], the “Predicted intrinsic hepatic metabolic clearance CLmet” value in series [1] is 27.0 L/h. Besides, the k el at 1 µM in series [1] (setting [5]) was 7.33e-05 s⁻¹. Moreover, the values for the microsomal CLint at 1 µM in series [1] (setting [6]) and in series [1] (setting [7]) were 2.53 µL/min/mg and 2.2 µL/min/mg, respectively.
On to `Oc1ccc(CC2NCCc3cc(O)c(O)cc32)cc1` (centres unmarked) [Higenamine, higenamine], for which the “Predicted intrinsic hepatic metabolic clearance CLmet” value in series [1] is 261 L/h. The k el at 1 µM in series [1] (setting [5]) was 0.000367 s⁻¹. In addition, the microsomal CLint at 1 µM in series [1] (setting [6]) was determined as 24.4 µL/min/mg; in series [1] (setting [7]), 22 µL/min/mg. In addition, in the series on ADRβ1, the “in vitro potency, times more potent than isopropyloctopamine” value was 3.5 times. In addition, the “observed average plasma concentration” value in series [2] was 0.5 ng/mL.
Turning to `CNCC(O)c1ccccc1` (centres unmarked) [Halostachine, halostachine], in series [1], the “Predicted intrinsic hepatic metabolic clearance CLmet” value is 416 L/h and the “metabolism in incubations without co-factor mix” value is reported as “metabolized in incubations without co-factor mix”. Further, the k el at 1 µM in series [1] (setting [5]) is 0.000312 s⁻¹. Besides, the microsomal CLint at 1 µM in series [1] (setting [6]) amounted to 39 µL/min/mg. Further, in series [1] (setting [7]), the microsomal CLint at 1 µM came to 37.4 µL/min/mg.
On the same counts, the results for `CNCC(O)c1ccc(O)cc1` (centres unmarked) [p-Synephrine, Synephrine] are 140 L/h, “metabolized in incubations without co-factor mix”, 0.000198 s⁻¹, 13.1 µL/min/mg and 11.9 µL/min/mg.
Take `CN(C)CCc1ccccc1` [Dimethylphenethylamine, N,N-dimethylphenethylamine]: in series [1], the “Predicted intrinsic hepatic metabolic clearance CLmet” value is 245 L/h and the “metabolism in incubations without co-factor mix” value is “metabolized in incubations without co-factor mix”. Besides, the k el at 1 µM in series [1] (setting [5]) was 0.000667 s⁻¹. In series [1] (setting [6]), the microsomal CLint at 1 µM was 23 µL/min/mg. Further, in series [1] (setting [7]), the microsomal CLint at 1 µM worked out at 20 µL/min/mg.
On the same counts, the results for `NCCc1ccccc1` [Phenethylamine, phenethylamine] are 2598 L/h, “metabolized in incubations without co-factor mix”, 0.000402 s⁻¹, 243 µL/min/mg and 241 µL/min/mg.
With `CNC(C)C(O)c1ccc(O)cc1` (centres unmarked) [Methylsynephrine], in series [1], the “Predicted intrinsic hepatic metabolic clearance CLmet” value was 19.7 L/h. Also, the k el at 1 µM in series [1] (setting [5]) is 4.97e-05 s⁻¹. For the same molecule, the microsomal CLint at 1 µM in series [1] (setting [6]) was determined as 1.84 µL/min/mg; in series [1] (setting [7]), 1.49 µL/min/mg.
Take `CC(CN)c1ccccc1` (stereo not drawn) [β-Methylphenethylamine, β-methylphenethylamine]: in series [1], the “Predicted intrinsic hepatic metabolic clearance CLmet” value was 139 L/h and the “metabolism in incubations without co-factor mix” value is “metabolized in incubations without co-factor mix”. Moreover, in series [1] (setting [5]), the k el at 1 µM is 0.000403 s⁻¹. Besides, the microsomal CLint at 1 µM in series [1] (setting [6]) was 13 µL/min/mg. The microsomal CLint at 1 µM in series [1] (setting [7]) amounted to 12.1 µL/min/mg.
Regarding `NCCc1ccc(O)cc1` [Tyramine, tyramine], the “over-prediction of the Cmax plasma compared to the observed average” value in series [3] is recorded as 3.78 fold. In addition, the “Predicted intrinsic hepatic metabolic clearance CLmet” value in series [1] is 841 L/h. For the same molecule, the “metabolism in incubations without co-factor mix” value in series [1] was “metabolized in incubations without co-factor mix”. The k el at 1 µM in series [1] (setting [5]) was 0.000322 s⁻¹. Moreover, the results for the microsomal CLint at 1 µM in series [1] (setting [6]) and in series [1] (setting [7]) were 78.8 µL/min/mg and 77.2 µL/min/mg, respectively. For the same molecule, in series [4], the “metabolic clearance observed in humans” value is 792 L/h.
`CC(C)NCC(O)c1ccc(O)cc1` (centres unmarked) [Isopropyloctopamine, isopropyloctopamine]: in series [1], the “Predicted intrinsic hepatic metabolic clearance CLmet” value is 27.3 L/h and the k el at 1 µM was 7.17e-05 s⁻¹. The microsomal CLint at 1 µM in series [1] (setting [6]) came to 2.56 µL/min/mg. Besides, the microsomal CLint at 1 µM in series [1] (setting [7]) was found to be 2.15 µL/min/mg.
